{"source": "paper PMC12959773", "about": "(Protein & Cell, 2025)", "key": {"SLC7A13-SLC3A1 complex [1]": {"biological_target": "T1, SLC7A13-SLC3A1 complex (Homo sapiens, UniProt Q8TCU3)", "T1 construct": "heterodimeric light/heavy chain transporter, dimer of heterodimers; ectopically expressed in HEK293T / HEK293 cells (Expi293 for cryo-EM); with Amino acid transporter heavy chain SLC3A1", "T1 sequence (Q8TCU3 1-470)": "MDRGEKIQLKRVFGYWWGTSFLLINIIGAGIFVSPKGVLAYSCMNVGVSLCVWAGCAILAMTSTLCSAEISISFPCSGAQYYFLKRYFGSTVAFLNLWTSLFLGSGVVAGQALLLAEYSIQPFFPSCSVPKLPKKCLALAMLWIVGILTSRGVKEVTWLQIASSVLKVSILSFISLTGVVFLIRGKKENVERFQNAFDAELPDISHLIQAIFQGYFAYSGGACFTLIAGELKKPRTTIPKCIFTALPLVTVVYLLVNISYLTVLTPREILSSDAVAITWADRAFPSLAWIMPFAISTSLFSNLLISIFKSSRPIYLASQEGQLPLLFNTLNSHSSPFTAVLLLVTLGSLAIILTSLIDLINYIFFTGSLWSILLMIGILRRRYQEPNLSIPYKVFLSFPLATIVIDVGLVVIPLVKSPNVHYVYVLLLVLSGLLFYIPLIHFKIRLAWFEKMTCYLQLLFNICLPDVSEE", "T1 sequence (Q07837 1-685 partner)": "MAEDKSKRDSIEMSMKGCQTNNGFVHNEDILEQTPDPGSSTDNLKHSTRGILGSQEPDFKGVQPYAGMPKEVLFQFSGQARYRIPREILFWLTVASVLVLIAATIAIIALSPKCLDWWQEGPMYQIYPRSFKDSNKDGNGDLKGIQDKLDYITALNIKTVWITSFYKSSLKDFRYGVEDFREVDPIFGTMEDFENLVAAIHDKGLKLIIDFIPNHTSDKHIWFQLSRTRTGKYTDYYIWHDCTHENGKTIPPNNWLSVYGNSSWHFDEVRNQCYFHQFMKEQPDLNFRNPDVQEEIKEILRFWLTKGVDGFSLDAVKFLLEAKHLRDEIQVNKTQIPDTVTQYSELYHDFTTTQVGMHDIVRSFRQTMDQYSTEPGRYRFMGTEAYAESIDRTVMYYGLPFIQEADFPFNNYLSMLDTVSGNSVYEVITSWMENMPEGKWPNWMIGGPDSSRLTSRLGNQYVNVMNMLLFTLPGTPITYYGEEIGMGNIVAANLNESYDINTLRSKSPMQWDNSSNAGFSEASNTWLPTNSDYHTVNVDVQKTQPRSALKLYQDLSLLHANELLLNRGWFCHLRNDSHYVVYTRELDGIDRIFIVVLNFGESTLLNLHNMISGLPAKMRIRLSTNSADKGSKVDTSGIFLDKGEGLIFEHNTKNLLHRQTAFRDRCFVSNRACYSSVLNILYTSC", "experiment": "microscale thermophoresis", "conditions": "read-out: binding affinity"}, "SLC7A11-SLC3A2 complex": {"biological_target": "T2, SLC7A11-SLC3A2 complex (Homo sapiens, UniProt Q9UPY5)", "T2 construct": "system xc-, heterodimeric light/heavy chain transporter; ectopically expressed in HEK293T cells; with Amino acid transporter heavy chain SLC3A2", "T2 sequence (Q9UPY5 1-501)": "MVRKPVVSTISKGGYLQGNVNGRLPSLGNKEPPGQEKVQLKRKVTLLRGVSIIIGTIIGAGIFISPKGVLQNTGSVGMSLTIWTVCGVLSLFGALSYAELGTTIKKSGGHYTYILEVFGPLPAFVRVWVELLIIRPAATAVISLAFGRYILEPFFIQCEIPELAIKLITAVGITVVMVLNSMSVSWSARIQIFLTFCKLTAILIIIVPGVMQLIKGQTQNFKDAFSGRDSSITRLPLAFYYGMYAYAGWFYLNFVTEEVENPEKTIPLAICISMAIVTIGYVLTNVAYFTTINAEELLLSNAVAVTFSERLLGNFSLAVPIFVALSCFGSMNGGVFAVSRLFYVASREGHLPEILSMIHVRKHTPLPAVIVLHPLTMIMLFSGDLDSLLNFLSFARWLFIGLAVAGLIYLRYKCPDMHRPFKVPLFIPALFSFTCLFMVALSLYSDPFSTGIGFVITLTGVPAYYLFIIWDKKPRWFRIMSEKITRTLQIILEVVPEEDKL", "T2 sequence (P08195 2-529 partner)": "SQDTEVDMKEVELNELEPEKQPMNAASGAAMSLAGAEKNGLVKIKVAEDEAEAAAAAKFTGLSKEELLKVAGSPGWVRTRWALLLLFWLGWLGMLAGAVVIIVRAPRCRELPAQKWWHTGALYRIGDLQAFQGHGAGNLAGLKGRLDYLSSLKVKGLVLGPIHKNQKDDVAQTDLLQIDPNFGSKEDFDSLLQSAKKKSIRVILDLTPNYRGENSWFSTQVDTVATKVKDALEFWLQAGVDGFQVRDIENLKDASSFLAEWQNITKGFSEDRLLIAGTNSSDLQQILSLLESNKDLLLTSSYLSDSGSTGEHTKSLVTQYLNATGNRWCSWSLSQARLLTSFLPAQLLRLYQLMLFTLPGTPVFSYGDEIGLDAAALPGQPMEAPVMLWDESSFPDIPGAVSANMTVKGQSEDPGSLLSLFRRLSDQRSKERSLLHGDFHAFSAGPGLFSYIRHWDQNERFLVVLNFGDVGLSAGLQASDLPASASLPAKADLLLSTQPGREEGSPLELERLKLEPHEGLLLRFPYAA", "experiment": "microscale thermophoresis", "conditions": "read-out: binding affinity"}, "SLC7A13-SLC3A1 complex [2]": {"biological_target": "T3, SLC7A13-SLC3A1 complex (Homo sapiens, UniProt Q8TCU3, K309A)", "T3 construct": "heterodimeric light/heavy chain transporter, dimer of heterodimers; ectopically expressed in HEK293T / HEK293 cells (Expi293 for cryo-EM); with Amino acid transporter heavy chain SLC3A1", "T3 sequence (Q8TCU3 1-470 K309A)": "T1 sequence (Q8TCU3 1-470) with K309A", "T3 sequence (Q07837 1-685 partner)": "T1 sequence (Q07837 1-685 partner)", "experiment": "[2H]-cystine uptake, isotope tracking", "type": "cell-based", "conditions": "HEK293 cells transfected with SLC7A13 and SLC3A1; labelled compound"}}, "note": "Where a chain is given by its changes, count along the chain named.", "data": [{"smiles": "N[C@@H](CSSC[C@H](N)C(=O)O)C(=O)O", "note": "[cystine]", "values": [{"measurement": "Kd", "setting": "SLC7A13-SLC3A1 complex [1]", "result": "112 ± 44", "unit": "µM"}, {"measurement": "Kd", "setting": "SLC7A11-SLC3A2 complex", "result": "15.6 ± 7.04", "unit": "µM"}, {"measurement": "cystine uptake", "setting": "SLC7A13-SLC3A1 complex [2]", "result": "mutation in any of the seven SLC7A13-specific residues to alanine significantly reduced SLC7A13’s transporter activities"}]}]}
